Blank lines part the entries; values can stand above or below the compound they belong to.
Assay: solvent given as SMILES

Structure (SMILES): CCN(CC)c1ccc2c(C(F)(F)F)cc(=O)oc2c1
emission maximum (in C1CCCCC1): 433 nm
emission maximum (in CC#N): 501 nm
emission maximum (in CCO): 509 nm
emission maximum (in CCOC(C)=O): 479 nm
emission maximum (in OCC(O)CO): 524 nm

Structure (SMILES): c1ccc([B-]2(c3ccccc3)Oc3ccc4ccccc4c3-c3c4ccccc4cn[n+]32)cc1
emission maximum (in Cc1ccccc1): 555 nm

Structure (SMILES): CCCCCCCCCCCCOc1ccc(C2=c3sc4ccccc4c3=[N+]3C2=Nc2c(-c4ccc(OCCCCCCCCCCCC)cc4)c4sc5ccccc5c4n2[B-]3(F)F)cc1
emission maximum (in C1CCOC1): 813 nm
emission maximum (in Cc1ccccc1): 804 nm
emission maximum (in ClC(Cl)Cl): 808 nm

Structure (SMILES): CC(C)(C)c1ccc(-c2nnc(-c3c(-n4c5ccccc5c5ccccc54)c(-n4c5ccccc5c5ccccc54)c(-c4nnc(-c5ccc(C(C)(C)C)cc5)o4)c(-n4c5ccccc5c5ccccc54)c3-n3c4ccccc4c4ccccc43)o2)cc1
emission maximum (in Cc1ccccc1): 569 nm
emission maximum (in c1cc(-n2c3ccccc3c3ccccc32)nc(-n2c3ccccc3c3ccccc32)c1): 527 nm

Structure (SMILES): COc1cccc(-c2c3ccccc3c3n2[B-](F)(F)[N+]2=Cc4c5ccccc5c(-c5cccc(OC)c5)n4[B-](F)(F)[N+]2=C3)c1
emission maximum (in CC#N): 596 nm
emission maximum (in CCCCCC): 598 nm
emission maximum (in CN(C)C=O): 603 nm
emission maximum (in Cc1ccccc1): 608 nm
emission maximum (in ClCCl): 602 nm

Structure (SMILES): Cn1ccc(=O)n(C)c1=O
emission maximum (in CC#N): 308 nm

Structure (SMILES): c1ccc(-c2nc(-c3ccccc3)nc(-c3ccc(N4c5ccccc5C5(c6ccccc64)c4ccccc4C4(c6ccccc6Sc6ccccc64)c4ccccc45)cc3)n2)cc1
emission maximum (in Cc1ccccc1): 468.93 nm

Structure (SMILES): Oc1ccccc1-c1nc2c3ccccc3c3ccccc3c2o1
emission maximum (in Cc1ccccc1): 367 nm

Structure (SMILES): CN(C)c1ccc(C2=Nc3scc[n+]3[B-](F)(F)O2)cc1
emission maximum (in C1CCOC1): 454 nm
emission maximum (in CC#N): 469 nm
emission maximum (in Cc1ccccc1): 439 nm
emission maximum (in ClCCl): 453 nm

Structure (SMILES): CCCCCCCCOc1ccc(C#Cc2ccc(C#Cc3ccc(OCCCCCCCC)c(OCCCCCCCC)c3)c3nc4c5ccccc5c5ccccc5c4nc23)cc1OCCCCCCCC
emission maximum (in C1CCOC1): 558 nm
emission maximum (in Cc1ccccc1): 541 nm
emission maximum (in ClCCl): 566 nm

Structure (SMILES): COc1ccc(-c2csc(/C(C#N)=C\Nc3ccc(C#N)cc3)n2)cc1
emission maximum (in CC#N): 451 nm
emission maximum (in CCO): 444 nm
emission maximum (in CN(C)C=O): 453 nm
emission maximum (in Cc1ccccc1): 441 nm
emission maximum (in ClCCl): 447 nm

Further lines, results first:

emission maximum (in C1CCCCC1): 554 nm
emission maximum (in C1CCOC1): 601 nm
emission maximum (in CC#N): 613 nm
emission maximum (in ClC(Cl)Cl): 585 nm
emission maximum (in c1ccccc1): 582 nm
Structure (SMILES): Cc1cc(C)c(B(c2c(C)cc(C)cc2C)c2cc3ccc4ccccc4c3c3c2cc(N(C)C)c2ccccc23)c(C)c1

emission maximum (in ClCCl): 421 nm
Structure (SMILES): O=C1c2cccc3cc(C#CC#Cc4cc5c6c(cccc6c4)C(=O)N(c4ccccc4)C5=O)cc(c23)C(=O)N1c1ccccc1

emission maximum (in ClC(Cl)Cl): 574 nm
Structure (SMILES): F[B-]1(F)n2cccc2C(c2ccccc2)=C2C=CC(c3ccc(OC4=[N+]5C(=C(c6ccccc6)c6cc(Br)c(Br)n6[B-]5(F)F)C=C4Br)cc3)=[N+]21

emission maximum (in ClCCl): 519 nm
Structure (SMILES): CCCCCCN1C(=O)c2cccc3c(-c4ccc(-c5cc(-c6ccc(Cl)cc6)nn5-c5ccccc5)s4)ccc(c23)C1=O

emission maximum (in ClC(Cl)Cl): 653 nm
Structure (SMILES): CCCCCCCCc1ccc(-c2c3cc(-c4cc(CCCCCCCC)c(-c5ccc(-c6sc(/C=C7\SC(SCC)=NC7=O)cc6CCCCCCCC)s5)s4)sc3c(-c3ccc(CCCCCCCC)s3)c3cc(-c4cc(CCCCCCCC)c(-c5ccc(-c6sc(/C=C7\SC(SCC)=NC7=O)cc6CCCCCCCC)s5)s4)sc23)s1

emission maximum (in C1CCCCC1): 411 nm
emission maximum (in CC#N): 412 nm
Structure (SMILES): C[Si](C)(C)[Si](C)(C)c1ccc2cc3ccccc3cc2c1

emission maximum (in CO): 417 nm
Structure (SMILES): N[C@@H](Cn1nnc2cc(-c3ccc4ccccc4c3)ccc21)C(=O)O

emission maximum (in C1CCOC1): 666 nm
Structure (SMILES): CC(C)(C)NC1=CC2=c3cc(NC(C)(C)C)c4nc(C(F)(F)C(F)(F)C(F)(F)F)nc5c(NC(C)(C)C)cc(c3c54)C3=CC(NC(C)(C)C)=C4N=C(C(F)(F)C(F)(F)C(F)(F)F)N=C1C4C32 (stereo unspecified)

emission maximum (in ClC(Cl)Cl): 489 nm
Structure (SMILES): FC(F)(F)c1ccc2oc3nc4oc5ccc(N6c7ccccc7Oc7ccccc76)cc5c4cc3c2c1

emission maximum (in ClCCl): 421 nm
Structure (SMILES): Oc1ccc(Br)cc1-c1nc2c(c3c1-c1ccccc1CC3)-c1ccccc1CC2

emission maximum (in ClCCl): 545 nm
Structure (SMILES): Cc1c(C(=O)c2ccc(C(F)(F)F)cc2)c2ccc3cccc4c5cccc6ccc1c(c65)c2c34

emission maximum (in CCCCCC): 615 nm
emission maximum (in CCCCCCCCO): 623 nm
emission maximum (in CCOC(C)=O): 617 nm
emission maximum (in CN(C)C=O): 624 nm
Structure (SMILES): CC1=CC(C)=[N+]2C1=Cc1c3ccccc3c(C#Cc3ccc(F)cc3)n1[B-]2(F)F

emission maximum (in ClCCl): 557 nm
Structure (SMILES): CC[C@H](C)COc1ccc(C2=C3C(C)=C(I)C(C)=[N+]3[B-](F)(F)n3c(C)c(I)c(C)c32)cc1

emission maximum (in C1CCOC1): 731 nm
Structure (SMILES): CC(C)(C)c1cc2c3c(c1)-c1cccc4c1N(B3N1c3ccccc3Sc3cccc-2c31)c1ccccc1S4

emission maximum (in ClC(Cl)Cl): 643 nm
Structure (SMILES): F[B-]1(F)n2c(ccc2-c2nc3ccccc3s2)C(c2ccccc2)=C2C=CC(c3nc4ccccc4s3)=[N+]21

emission maximum (in C1COCCO1): 522 nm
Structure (SMILES): COC(=O)c1ccc(/C=C2\C=C(c3ccc(OC)c(OC)c3)OC2=O)cc1

emission maximum (in O): 385 nm
Structure (SMILES): O=S(=O)([O-])c1ccc2c(O)cc(S(=O)(=O)[O-])cc2c1
